# Source: US20160310389A1, “Low Viscosity Hair Care Composition” (The Procter & Gamble Company, priority 2015, published 2016)
# Counter-ions that a name gives are not always drawn.
# How the values were obtained:
# Format in all cases: physicochemical
# [1] = Shear viscosity of base formulation with additives (TA Instruments AR-G2 rheometer); conditions: 5% single additive, 25 C, shear rate 1 s^-1
# From the text: Now referring to Table 3, the base formulations were made by mixing 1.5 or 3.0% of perfume R, 24% sodium undecyl sulfate (CAS#1072-24-8) active, 6% Lauramidopropyl Betaine (CAS#4292-10-8) active, and 60.4% deionized water which leaves 8% unfilled for oil addition and level studies (the balance being filled in by distilled water).
# The complete formulations were made by adding the respective percentage of the agents from Table 3 into the base formulation, and filling the rest with deionized water to make 100% finished sample. The formulations were vortexed and put into oven at 60° C. overnight to form a homogeneous solution. For all formulations, the surfactant, water and additives including viscosity reducing agents are expected to be in a single phase.
# The shear viscosity at 25 C for each formulations was measured at a shear rate of 1 s^−1 using a TA Instruments AR-G2 rheometer with a concentric cylinder attachment. Shear viscosities are reported in cP.
# [2] = Kinematic viscosity of surfactant base formulation with added agent (calibrated Cannon viscometers); conditions: for Kinematic viscosity at 40 C., 2% oil: 2% agent in base formulation; for Kinematic viscosity at 40 C., 4% oil: 4% agent in base formulation; for Kinematic viscosity at 40 C., 6% oil: 6% agent in base formulation; for Lowest viscosity achieved: kinematic viscosity at 40° C., lowest over 2%, 4%, 6%, 8% agent in base formulation (24% sodium undecyl sulfate, 6% lauramidopropyl betaine, 1.6% perfume); for Kinematic viscosity at 40 C., 8% oil: 8% agent in base formulation
# From the text: Referring to Tables 1 and 2, the base formulations were made by mixing 1.6% perfume, 24% sodium undecyl sulfate (CAS#1072-24-8) active, 6% lauramidopropyl betaine (CAS#4292-10-8) active and 60.4% deionized water which leaves 8% unfilled for the addition of a viscosity reducing agent (the balance being filled in by distilled water). For all compositions, the surfactant, water and additives including viscosity reducing agents were expected to be in a single phase.
# The agents from Tables 1 and 2 were added to the base formulation at a percentage of 2%, 4%, 6%, and 8% into the above surfactant solution. The subsequent formulations were vortexed and put into oven at 60° C. overnight to form homogeneous solution. The viscosities of the formulations were measured with calibrated viscometers (Size 200/350/450) from Cannon Instrument Company (2139 High Tech Road, State College, Pa., USA, 16803).
# After the equilibration, the formulations were drawn to reach the starting mark with a rubber suction bulb and the flow time between the starting mark and end mark was recorded for calculation. Each formulation was measured three times to calculate average and standard deviation. Between samples, viscometer was cleaned with water and acetone to rinse off residual.
# Viscosity values were calculated based on the equation:
# Viscosity (mm^2/s (cSt))=Time (s)*Constant (mm^2/s^2·(cSt/s))
# The time in the above equation is the flow time recorded in the experiment and the constant numbers for each calibrated viscometer were obtained from the manuals.
# [3] = NMR self-diffusion coefficients and specific diffusivity ratio; conditions: for Specific diffusivity ratio measured at 4%: diffusion coefficient of the viscosity reducing agent/diffusion coefficient of the surfactant, 4% additive; for Diffusion Coefficient (m^2/s) surfactant at 4% additive: surfactant self-diffusion
# Method: Now referring to Table 5, the specified viscosity reducing agents were added to the formula at a level of 4% in absence of other viscosity reducing agents. Diffusion coefficients were determined using a vendor-supplied pulse sequence (“ledbpgq2s”, stimulated echo with bipolar gradients and convection compensation) using a Bruker Avance 700 MHz NMR spectrometer equipped with a Diff-30 high gradient diffusion probe. Gradient pulse durations ranged between 1700-2700 us, with diffusion periods ranging from 50-100 ms. 32 linearly-spaced gradient values were used ranging from 2%-95% of 40 A current, with resulting gradient strengths given by 30 Gauss/cm/A. Data were processed using software written in-house. It is often necessary to fit more than one diffusion coefficient to individual signals. Average diffusion coefficients are reported in these cases. Averages were calculated by averaging the reciprocals of the diffusion coefficients and then taking the reciprocal of that average.
# The specific diffusivity ratio is calculated as the ratio of the diffusion coefficient of the viscosity reducing agent/diffusion coefficient of the surfactant.
# Two mechanisms of viscosity reduction are hypothesized based on self-diffusion coefficients. This leads to a simple diagnostic measurement to classify perfumes by their mechanism of viscosity reduction. That diagnostic is the ratio of the perfume self-diffusion coefficient to the surfactant self-diffusion coefficient (specific diffusivity ratio). In mechanism 1, the surfactant diffusion coefficient is not reduced, and may be increased, while the perfume diffusion coefficient is faster still. In mechanism 2, the surfactant and perfume diffusion coefficient are reduced to relatively small, nearly equal values. For mechanism 1, the viscosity reducing agent diffuses faster than the surfactant (specific diffusivity ratio>1), whereas for mechanism 2, the viscosity reducing agent diffuses slower than the surfactant (specific diffusivity ratio<1).
# [4] = SAXS correlation length of the micelles; conditions: for Change in correlation length compared to control: control 51 A
# From the text: Now referring to Table 4, SAXS (Small angle x-ray scattering) was used to characterize the structure of the surfactant aggregates. For these set of samples, the broad peak represents the correlation length (CL) of the micelles and was used to differentiate between the different formulations.
# SAXS data was collected with a Bruker NanoSTAR (Bruker AXS Inc., Madison, Wis., U.S.A.) using the micro-focus, Cu x-ray tube, operating at 45 kV, 0.650 mA. The sample to detector distance was 112.050 cm and the detector was Vantec2K 2-dimensional area detector. Samples were placed in 2 mm quartz capillaries, sealed with expoxy resin to prevent evaporation. The sealant is permitted to cure for 2 hours at RT (room temperature) prior to loading into the SAXS sample chamber for data acquisition under vacuum with a data collection time of 1200 s. The data acquisition angular range is 0.3° to 3.0° […], to observe the presence and location of any intensity bands in the x-ray scattering pattern.
# Each raw 2-D SAXS data is integrated azimuthally and plotted versus the scattering vector (q), which is expressed as a […] in units of angstroms (1/Å). • The values for q are calculated by the SAXS instrument according to the following equation: […]
# Where: 2θ is the scattering angle; and λ is the wavelength used. For each formulation analyzed, the location of each intensity peak on the plot of (Intensity) I vs q is identified and recorded.
SMILES,Shear viscosity [cP] for mixture ([1]; 3.0% Royal Hue),"Kinematic viscosity at 40 C., 2% oil [2]","Kinematic viscosity at 40 C., 4% oil [2]","Kinematic viscosity at 40 C., 6% oil [2]",Lowest viscosity achieved [2],Specific diffusivity ratio measured at 4% [3],Diffusion Coefficient (m^2/s) surfactant at 4% additive [3],"Kinematic viscosity at 40 C., 8% oil [2]",Shear viscosity [cP] for mixture ([1]; 1.5% Royal Hue),Correlation length peak [A] ([4]; 2% oil),Change in correlation length compared to control ([4]; 2% oil),Correlation length peak [A] ([4]; 4% oil),Change in correlation length compared to control ([4]; 4% oil)
CC(=O)c1ccccc1 [Acetophenone],119 cP,–,–,–,–,–,–,–,–,–,–,–,–
CCOC(=O)C1OC1(C)c1ccccc1 (stereo not drawn) [Ethyl Methyl Phenyl Glycidate],163 cP,–,–,–,–,–,–,–,–,–,–,–,–
CC12CCC(CC1)C(C)(C)O2 [Eucalyptol],376 cP,527.3 cSt,292.9 cSt,203.1 cSt,203 cSt,1.5710,1.2262E−11 m^2/s,–,–,–,–,–,–
CC(CC=O)CCCC(C)(C)O (stereo not drawn) [Hydroxycitronellal],161 cP,310.8 cSt,145.4 cSt,65.9 cSt,34 cSt,–,–,34.1 cSt,–,–,–,–,–
C=C(C)[C@H]1CC=C(C)CC1 [Limonene],160 cP,366.5 cSt,166.8 cSt,97.5 cSt,86 cSt,0.7428,2.4338E−12 m^2/s,86.4 cSt,40 cP,57 A,11.8%,62 A,21.6%
C=CC(C)(CCC=C(C)C)OC(=O)C(C)C (stereo not drawn) [Linalyl Iso Butyrate],–,223.4 cSt,73.0 cSt,37.7 cSt,38 cSt,0.7224,2.5217E−12 m^2/s,39.9 cSt,–,56 A,9.8%,61 A,19.6%
CC(=O)CCc1ccc(O)cc1 [Raspberry Ketone],110 cP,151.9 cSt,107.4 cSt,54.0 cSt,33 cSt,5.1364,9.5404E−12 m^2/s,33.0 cSt,160 cP,50 A,−2.0%,49 A,−3.9%
CCOC(=O)CC(O)(CC(=O)OCC)C(=O)OCC [Triethyl Citrate],–,269.4 cSt,136.6 cSt,66.6 cSt,41 cSt,3.9850,1.0196E−11 m^2/s,40.5 cSt,–,50 A,−2.0%,49 A,−3.9%
CCCCCC1(C)CCC(C)(C)C1=O (stereo not drawn) [Veloutone],–,260.2 cSt,129.1 cSt,56.3 cSt,47 cSt,0.965,2.3854E−12 m^2/s,47.3 cSt,–,55 A,7.8%,59 A,15.7%
CC1=CCC2CC1C2(C)C (stereo not drawn) [alpha-Pinene],207 cP,–,–,–,–,–,–,–,–,–,–,–,–
